Assay results as given in BindingDB's records for doi:10.1016/s0960-894x(01)00005-1 (Graduate School of Bioscience and Biotechnology, 2001).

How the values were obtained:
[1] = Dissociation constant for TAR RNA
[2] = Inhibitory activity against peptide binding to the RRE RNA was determined

| SMILES | Kd [1] | IC50 [2] |
| --- | --- | --- |
| NC1CC(N)C(OC2OC(CNC(=O)c3ccc4ccc5cccc6ccc3c4c56)C(O)C(O)C2N)C(O)C1O [Pyrene-1-carboxylic acid [(4R,5S,6S)-5-amino-6-((2R,3R,4R)-4,6-diamino-2,3-dihydroxy-cyclohexyloxy)-3,4-dihydroxy-tetrahydro-pyran-2-ylmethyl]-amide] | 290 nM | – |
| N=C(N)NCCCC(NC(=O)c1ccc2ccc3cccc4ccc1c2c34)C(=O)NCC1OC(OC2C(N)CC(N)C(O)C2O)C(N)C(O)C1O (stereo not drawn) [Neamine derivative] | 30 nM | – |
| N=C(N)NCCCC(N)C(=O)NCC1OC(OC2C(N)CC(N)C(O)C2O)C(N)C(O)C1O [2-Amino-5-guanidino-pentanoic acid [(4R,5S,6S)-5-amino-6-((2R,3R,4R)-4,6-diamino-2,3-dihydroxy-cyclohexyloxy)-3,4-dihydroxy-tetrahydro-pyran-2-ylmethyl]-amide] | – | 460 nM |
